pIC50: −log10 of the molar value.
Tests used:
MDA-MB-231 = experiment: Growth inhibition of human MDA-MB-231 cells at 10 uM incubated for 48 hrs by sulforhodamine B assay relative to control; type: functional; conditions: MDA-MB-231, 48 h, read-out: GI
RXF 393 = experiment: Growth inhibition of human RXF393 cells at 10 uM incubated for 48 hrs by sulforhodamine B assay relative to control; type: functional; conditions: RXF 393, 48 h, read-out: GI
HCT-116 = experiment: Growth inhibition of human HCT116 cells at 10 uM incubated for 48 hrs by sulforhodamine B assay relative to control; type: functional; conditions: HCT-116, 48 h, read-out: GI
MCF7 [1] = experiment: Growth inhibition of human MCF7 cells at 10 uM incubated for 48 hrs by sulforhodamine B assay relative to control; type: functional; conditions: MCF7, 48 h, read-out: GI
[2] = biological target: Serine/threonine-protein kinase B-raf (Homo sapiens, UniProt P15056); experiment: Inhibition of human wild type BRAF by Kinase-Glo luminescence assay
ACHN = experiment: Growth inhibition of human ACHN cells at 10 uM incubated for 48 hrs by sulforhodamine B assay relative to control; type: functional; conditions: read-out: GI
MCF7 [3] = experiment: Cytotoxicity against human MCF7 cells expressing VEGFR2 and wild type BRAF measured after 48 hrs by sulforhodamine B assay; type: functional, cell-based; conditions: MCF7, 48 h
CAKI-1 = experiment: Growth inhibition of human Caki1 cells at 10 uM incubated for 48 hrs by sulforhodamine B assay relative to control; type: functional; conditions: CAKI-1, 48 h, read-out: GI
MDA-MB-468 = experiment: Growth inhibition of human MDA-MB-468 cells at 10 uM incubated for 48 hrs by sulforhodamine B assay relative to control; type: functional; conditions: MDA-MB-468, 48 h, read-out: GI
MOLT-4 = experiment: Growth inhibition of human MOLT4 cells at 10 uM incubated for 48 hrs by sulforhodamine B assay relative to control; type: functional; conditions: MOLT-4, 48 h, read-out: GI
T47D [4] = experiment: Growth inhibition of human T47D cells at 10 uM incubated for 48 hrs by sulforhodamine B assay relative to control; type: functional; conditions: read-out: GI
T47D [5] = experiment: Cytotoxicity against human T47D cells expressing wild type BRAF measured after 48 hrs by sulforhodamine B assay; type: functional, cell-based
UACC-62 = experiment: Growth inhibition of human UACC62 cells at 10 uM incubated for 48 hrs by sulforhodamine B assay relative to control; type: functional; conditions: UACC-62, 48 h, read-out: GI
NCI-H522 = experiment: Growth inhibition of human NCI-H522 cells at 10 uM incubated for 48 hrs by sulforhodamine B assay relative to control; type: functional; conditions: NCI-H522, 48 h, read-out: GI
LOX IMVI = experiment: Growth inhibition of human LOXIMVI cells at 10 uM incubated for 48 hrs by sulforhodamine B assay relative to control; type: functional; conditions: read-out: GI
RPMI-8226 = experiment: Growth inhibition of human RPMI8226 cells at 10 uM incubated for 48 hrs by sulforhodamine B assay relative to control; type: functional; conditions: RPMI-8226, 48 h, read-out: GI
UO-31 = experiment: Growth inhibition of human UO31 cells at 10 uM incubated for 48 hrs by sulforhodamine B assay relative to control; type: functional; conditions: UO-31, 48 h, read-out: GI
OVCAR-4 = experiment: Growth inhibition of human OVCAR4 cells at 10 uM incubated for 48 hrs by sulforhodamine B assay relative to control; type: functional; conditions: OVCAR-4, 48 h, read-out: GI
[6] = biological target: Vascular endothelial growth factor receptor 2 (Homo sapiens, UniProt P35968); experiment: Inhibition of human N-terminal GST tagged VEGFR-2 expressed in baculovirus infected Sf9 cells using poly (Glu,Tyr) 4:1 as substrate in presence of ATP by Kinase-Glo luminescence assay
NCI/ADR-RES = experiment: Growth inhibition of human NCI/ADR-RES cells at 10 uM incubated for 48 hrs by sulforhodamine B assay relative to control; type: functional; conditions: read-out: GI
SK-MEL-5 = experiment: Growth inhibition of human SK-MEL-5 cells at 10 uM incubated for 48 hrs by sulforhodamine B assay relative to control; type: functional; conditions: SK-MEL-5, 48 h, read-out: GI
OVCAR-8 = experiment: Growth inhibition of human OVCAR8 cells at 10 uM incubated for 48 hrs by sulforhodamine B assay relative to control; type: functional; conditions: OVCAR-8, 48 h, read-out: GI
PC-3 = experiment: Growth inhibition of human PC3 cells at 10 uM incubated for 48 hrs by sulforhodamine B assay relative to control; type: functional; conditions: PC-3, 48 h, read-out: GI
CCRF-CEM = experiment: Growth inhibition of human CCRF-CEM cells at 10 uM incubated for 48 hrs by sulforhodamine B assay relative to control; type: functional; conditions: read-out: GI
K562 = experiment: Growth inhibition of human K562 cells at 10 uM incubated for 48 hrs by sulforhodamine B assay relative to control; type: functional; conditions: K562, 48 h, read-out: GI
NCI-H226 = experiment: Growth inhibition of human NCI-H226 cells at 10 uM incubated for 48 hrs by sulforhodamine B assay relative to control; type: functional; conditions: NCI-H226, 48 h, read-out: GI
MCF7 [7] = experiment: Inhibition of VEGFR2 level in human MCF7 cells at 10 uM measured after 48 hrs by ELISA relative to control; type: functional; conditions: MCF7, 48 h
IGROV-1 = experiment: Growth inhibition of human IGROV1 cells at 10 uM incubated for 48 hrs by sulforhodamine B assay relative to control; type: functional; conditions: IGROV-1, 48 h, read-out: GI
NCI-H23 = experiment: Growth inhibition of human NCI-H23 cells at 10 uM incubated for 48 hrs by sulforhodamine B assay relative to control; type: functional; conditions: NCI-H23, 48 h, read-out: GI
SNB-75 = experiment: Growth inhibition of human SNB75 cells at 10 uM incubated for 48 hrs by sulforhodamine B assay relative to control; type: functional; conditions: SNB-75, 48 h, read-out: GI
A498 = experiment: Growth inhibition of human A498 cells at 10 uM incubated for 48 hrs by sulforhodamine B assay relative to control; type: functional; conditions: A498, 48 h, read-out: GI
SF-268 = experiment: Growth inhibition of human SF268 cells at 10 uM incubated for 48 hrs by sulforhodamine B assay relative to control; type: functional; conditions: SF-268, 48 h, read-out: GI
SF-539 = experiment: Growth inhibition of human SF539 cells at 10 uM incubated for 48 hrs by sulforhodamine B assay relative to control; type: functional; conditions: SF-539, 48 h, read-out: GI
EKVX = experiment: Growth inhibition of human EKVX cells at 10 uM incubated for 48 hrs by sulforhodamine B assay relative to control; type: functional; conditions: read-out: GI
HOP-62 = experiment: Growth inhibition of human HOP62 cells at 10 uM incubated for 48 hrs by sulforhodamine B assay relative to control; type: functional; conditions: HOP-62, 48 h, read-out: GI
SNB-19 = experiment: Growth inhibition of human SNB19 cells at 10 uM incubated for 48 hrs by sulforhodamine B assay relative to control; type: functional; conditions: SNB-19, 48 h, read-out: GI
HCT-15 = experiment: Growth inhibition of human HCT15 cells at 10 uM incubated for 48 hrs by sulforhodamine B assay relative to control; type: functional; conditions: HCT-15, 48 h, read-out: GI
A549 = experiment: Growth inhibition of human A549/ATCC cells at 10 uM incubated for 48 hrs by sulforhodamine B assay relative to control; type: functional; conditions: A549, 48 h, read-out: GI
KM12 = experiment: Growth inhibition of human KM12 cells at 10 uM incubated for 48 hrs by sulforhodamine B assay relative to control; type: functional; conditions: KM12, 48 h, read-out: GI
SF-295 = experiment: Growth inhibition of human SF295 cells at 10 uM incubated for 48 hrs by sulforhodamine B assay relative to control; type: functional; conditions: SF-295, 48 h, read-out: GI

Sequence of Vascular endothelial growth factor receptor 2 (P35968 whole entry): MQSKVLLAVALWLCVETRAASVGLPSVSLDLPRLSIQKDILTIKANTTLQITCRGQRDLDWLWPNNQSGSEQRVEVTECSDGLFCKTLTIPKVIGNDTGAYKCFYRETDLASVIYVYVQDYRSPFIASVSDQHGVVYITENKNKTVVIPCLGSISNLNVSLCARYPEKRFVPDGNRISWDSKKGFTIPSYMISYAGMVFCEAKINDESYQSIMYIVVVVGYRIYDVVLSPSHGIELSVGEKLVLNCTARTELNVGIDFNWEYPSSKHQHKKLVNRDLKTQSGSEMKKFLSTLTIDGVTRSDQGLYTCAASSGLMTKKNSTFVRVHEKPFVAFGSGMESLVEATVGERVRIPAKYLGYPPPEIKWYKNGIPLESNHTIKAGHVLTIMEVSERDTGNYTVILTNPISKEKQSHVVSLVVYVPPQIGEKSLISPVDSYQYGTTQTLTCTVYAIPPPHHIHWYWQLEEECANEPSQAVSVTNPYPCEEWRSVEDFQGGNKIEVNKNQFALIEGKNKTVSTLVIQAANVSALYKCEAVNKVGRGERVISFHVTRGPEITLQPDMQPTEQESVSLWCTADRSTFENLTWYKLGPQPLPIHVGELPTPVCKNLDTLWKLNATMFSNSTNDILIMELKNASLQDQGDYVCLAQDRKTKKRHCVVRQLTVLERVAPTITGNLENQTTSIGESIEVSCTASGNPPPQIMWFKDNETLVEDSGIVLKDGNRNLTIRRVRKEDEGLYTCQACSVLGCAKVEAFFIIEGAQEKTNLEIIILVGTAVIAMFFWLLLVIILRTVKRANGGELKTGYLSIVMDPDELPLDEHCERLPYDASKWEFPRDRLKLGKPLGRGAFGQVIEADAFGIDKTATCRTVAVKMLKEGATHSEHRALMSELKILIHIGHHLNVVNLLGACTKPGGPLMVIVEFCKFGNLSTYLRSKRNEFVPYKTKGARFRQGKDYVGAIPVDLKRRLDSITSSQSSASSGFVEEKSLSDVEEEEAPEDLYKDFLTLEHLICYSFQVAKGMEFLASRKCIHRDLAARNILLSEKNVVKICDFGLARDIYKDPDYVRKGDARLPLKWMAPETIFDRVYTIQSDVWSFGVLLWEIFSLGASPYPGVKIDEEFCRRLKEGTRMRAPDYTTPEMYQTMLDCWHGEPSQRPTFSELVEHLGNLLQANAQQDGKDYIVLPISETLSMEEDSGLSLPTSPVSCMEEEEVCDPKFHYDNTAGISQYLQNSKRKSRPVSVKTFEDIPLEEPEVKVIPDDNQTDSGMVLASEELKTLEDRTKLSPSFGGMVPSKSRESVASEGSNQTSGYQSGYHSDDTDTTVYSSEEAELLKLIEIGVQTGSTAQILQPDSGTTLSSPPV
Sequence of Serine/threonine-protein kinase B-raf (P15056 whole entry): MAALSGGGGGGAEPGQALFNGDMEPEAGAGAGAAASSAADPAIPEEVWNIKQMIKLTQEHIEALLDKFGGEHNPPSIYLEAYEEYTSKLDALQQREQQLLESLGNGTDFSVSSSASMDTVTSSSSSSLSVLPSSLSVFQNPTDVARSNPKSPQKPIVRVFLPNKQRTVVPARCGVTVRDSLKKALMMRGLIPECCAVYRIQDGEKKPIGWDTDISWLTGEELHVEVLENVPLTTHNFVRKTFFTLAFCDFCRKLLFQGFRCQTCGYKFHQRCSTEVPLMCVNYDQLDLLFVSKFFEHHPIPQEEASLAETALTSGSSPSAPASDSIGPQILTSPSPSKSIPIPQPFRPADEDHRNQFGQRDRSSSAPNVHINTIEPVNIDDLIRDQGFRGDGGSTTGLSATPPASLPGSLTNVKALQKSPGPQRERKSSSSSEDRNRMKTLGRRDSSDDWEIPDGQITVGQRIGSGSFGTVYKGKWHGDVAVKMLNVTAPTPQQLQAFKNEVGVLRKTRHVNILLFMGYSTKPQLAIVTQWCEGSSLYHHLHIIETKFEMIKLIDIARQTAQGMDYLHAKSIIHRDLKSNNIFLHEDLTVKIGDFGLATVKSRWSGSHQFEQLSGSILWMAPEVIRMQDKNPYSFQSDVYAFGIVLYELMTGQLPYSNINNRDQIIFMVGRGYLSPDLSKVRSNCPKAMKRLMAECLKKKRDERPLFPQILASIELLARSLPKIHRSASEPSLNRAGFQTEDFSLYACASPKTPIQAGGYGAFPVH

Row | Structure (SMILES) | inhibition of growth at 10 µM (MDA-MB-231) [%] | inhibition of growth at 10 µM (MCF7 [1]) [%] | pIC50 [2] | inhibition of growth at 10 µM (ACHN) [%] | pIC50 (MCF7 [3]) | inhibition of growth at 10 µM (CAKI-1) [%] | inhibition of growth at 10 µM (MDA-MB-468) [%] | inhibition of growth at 10 µM (MOLT-4) [%] | inhibition of growth at 10 µM (T47D [4]) [%] | inhibition of growth at 10 µM (UACC-62) [%] | inhibition of growth at 10 µM (NCI-H522) [%] | inhibition of growth at 10 µM (RPMI-8226) [%] | inhibition of growth at 10 µM (UO-31) [%] | pIC50 [6] | inhibition of growth at 10 µM (OVCAR-8) [%] | inhibition of growth at 10 µM (PC-3) [%] | inhibition of growth at 10 µM (CCRF-CEM) [%] | inhibition of growth at 10 µM (K562) [%] | inhibition of growth at 10 µM (NCI-H226) [%] | inhibition of growth at 10 µM (NCI-H23) [%] | further results
1 | COc1ccc(C(=O)CSc2nccc(Nc3ccc(N4CCOCC4)cc3)n2)cc1 | 11 | 17 | 6.36 | 11 | 4.64 | 16 | 13 | 34 | 67 | 30 | 34 | 45 | 35 | 6.54 | 24 | 16 | 21 | 21 | 13 | 15 | inhibition of growth at 10 µM (RXF 393): 10%; inhibition of growth at 10 µM (HCT-116): 18%; pIC50 (T47D [5]): 5.36; inhibition of growth at 10 µM (LOX IMVI): 11%; inhibition of growth at 10 µM (OVCAR-4): 15%; inhibition of growth at 10 µM (NCI/ADR-RES): 24%; inhibition of growth at 10 µM (SK-MEL-5): 53%; inhibition at 10 µM (MCF7 [7]): 52%; inhibition of growth at 10 µM (IGROV-1): 12%
2 | O=C(CSc1nccc(Nc2ccc(N3CCOCC3)cc2)n1)c1ccc(Cl)cc1 | 10 | – | – | 10 | 4.14 | 23 | 19 | – | – | 10 | 22 | 10 | 26 | 5.72 | 17 | 12 | 13 | 10 | 13 | 19 | inhibition of growth at 10 µM (SNB-75): 36%; inhibition of growth at 10 µM (A498): 13%; inhibition of growth at 10 µM (SF-268): 15%; inhibition of growth at 10 µM (SF-539): 15%; inhibition of growth at 10 µM (EKVX): 10%; inhibition of growth at 10 µM (HOP-62): 37%; inhibition of growth at 10 µM (SNB-19): 19%; inhibition of growth at 10 µM (IGROV-1): 17%
3 | CC(=O)c1ccc(Nc2ccnc(SCC(=O)c3ccc(Cl)cc3)n2)cc1 | – | 19 | 6.19 | 11 | 4.26 | 21 | 27 | 33 | 71 | 34 | 29 | 46 | 33 | 6.66 | 29 | 30 | 29 | 19 | 21 | 13 | inhibition of growth at 10 µM (HCT-15): 14%; inhibition of growth at 10 µM (A549): 20%; inhibition of growth at 10 µM (KM12): 11%; pIC50 (T47D [5]): 4.84; inhibition of growth at 10 µM (SF-295): 14%; inhibition of growth at 10 µM (A498): 19%; inhibition of growth at 10 µM (OVCAR-4): 18%; inhibition of growth at 10 µM (NCI/ADR-RES): 46%; inhibition of growth at 10 µM (SK-MEL-5): 65%; inhibition of growth at 10 µM (EKVX): 10%; inhibition of growth at 10 µM (HOP-62): 14%
